Experimental data: ChEMBL document CHEMBL1201861, “Genomics of Drug Sensitity in Cancer screening data, Wellcome Trust Sanger Institute”
pIC50: −log10 of the molar value.

What was measured:
Assay in all cases: cells
RS4-11 = type: functional, cell-based, Homo sapiens; conditions: Homo sapiens, RS4-11;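 note: growth inhibition of RS4-11 cells, read out by a cell viability assay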
Description: SANGER: Inhibition of human RS4-11 cell growth in a cell viability assay.

NKM-1 = type: functional, cell-based, Homo sapiens; conditions: Homo sapiens, NKM-1;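 note: growth inhibition of NKM-1 cells, read out with a cell viability assay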
Description: SANGER: Inhibition of human NKM-1 cell growth in a cell viability assay.

LAN-6 = type: functional, cell-based, Homo sapiens; conditions: Homo sapiens, LAN-6;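 note: growth inhibition of LAN-6 cells, determined with a cell viability assay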
Description: SANGER: Inhibition of human LAN-6 cell growth in a cell viability assay.

LAMA-84 = type: functional, cell-based, Homo sapiens; conditions: Homo sapiens, LAMA-84;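 note: growth inhibition of LAMA-84 cells, read out with a cell viability assay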
D-263MG = type: functional, cell-based, Homo sapiens; conditions: Homo sapiens, D-263MG
Description: SANGER: Inhibition of human D-263MG cell growth in a cell viability assay.

ES6 = type: functional, cell-based; conditions: Homo sapiens;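 note: growth inhibition of human ES6 cells, read out with a cell viability assay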
Description: SANGER: Inhibition of human ES6 cell growth in a cell viability assay.

LB1047-RCC = type: functional, cell-based, Homo sapiens; conditions: Homo sapiens, LB1047-RCC;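 note: inhibition of cell growth, determined with a cell viability assay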
Description: SANGER: Inhibition of human LB1047-RCC cell growth in a cell viability assay.

NCI-H23 = type: functional, cell-based, Homo sapiens; conditions: Homo sapiens, NCI-H23;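 note: cell viability assay measuring growth inhibition of NCI-H23 cells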
Description: SANGER: Inhibition of human NCI-H23 cell growth in a cell viability assay.

KURAMOCHI = type: functional, cell-based, Homo sapiens; conditions: Homo sapiens, KURAMOCHI;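 note: growth inhibition of KURAMOCHI cells, read out with a cell viability assay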
Description: SANGER: Inhibition of human KURAMOCHI cell growth in a cell viability assay.

A388 = type: functional, cell-based; conditions: Homo sapiens;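 note: growth inhibition of human A388 cells, read out with a cell viability assay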
Description: SANGER: Inhibition of human A388 cell growth in a cell viability assay.

C8166 = type: functional, cell-based, Homo sapiens; conditions: Homo sapiens, C8166;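 note: growth inhibition of human C8166 cells measured by a cell viability assay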
Description: SANGER: Inhibition of human C8166 cell growth in a cell viability assay.

RKO = type: functional, cell-based, Homo sapiens; conditions: Homo sapiens, RKO;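 note: growth inhibition of human RKO cells, read out with a cell viability assay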
SNU-5 = type: functional, cell-based, Homo sapiens; conditions: Homo sapiens, SNU-5;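 note: cell viability readout used to measure growth inhibition in human NCI-SNU-5 cells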
Description: SANGER: Inhibition of human NCI-SNU-5 cell growth in a cell viability assay.

EW-18 = type: functional, cell-based, Homo sapiens; conditions: Homo sapiens, EW-18; read-out: IC50;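 note: growth inhibition of EW-18 cells, read out by a cell viability assay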
Description: SANGER: Inhibition of human EW-18 cell growth in a cell viability assay.

AM-38 = type: functional, cell-based, Homo sapiens; conditions: Homo sapiens, AM-38;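 note: growth inhibition of AM-38 cells of human origin, read out by a cell viability assay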
Description: SANGER: Inhibition of human AM-38 cell growth in a cell viability assay.

CTV-1 = type: functional, cell-based, Homo sapiens; conditions: Homo sapiens, CTV-1;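 note: growth inhibition of the cell line, read out with a cell viability assay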
Description: SANGER: Inhibition of human CTV-1 cell growth in a cell viability assay.

LC-2-ad = type: functional, cell-based, Homo sapiens; conditions: Homo sapiens, LC-2-ad;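 note: growth inhibition of human LC-2-ad cells, read out with a cell viability assay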
Description: SANGER: Inhibition of human LC-2-ad cell growth in a cell viability assay.

MS-1 = type: functional, cell-based, Homo sapiens; conditions: Homo sapiens, MS-1;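 note: growth inhibition of MS-1 cells, read out by cell viability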
Description: SANGER: Inhibition of human MS-1 cell growth in a cell viability assay.

HH = type: functional, cell-based, Homo sapiens; conditions: Homo sapiens, HH
Description: SANGER: Inhibition of human HH cell growth in a cell viability assay.

TGBC24TKB = type: functional, cell-based; conditions: Homo sapiens;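 note: growth inhibition of human TGBC24TKB cells, read out with a cell viability assay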
Description: SANGER: Inhibition of human TGBC24TKB cell growth in a cell viability assay.

LU-134-A = type: functional, cell-based, Homo sapiens; conditions: Homo sapiens, LU-134-A
Description: SANGER: Inhibition of human LU-134-A cell growth in a cell viability assay.

JVM-2 = type: functional, cell-based, Homo sapiens; conditions: Homo sapiens, JVM-2;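 note: growth inhibition of JVM-2 cells determined by a cell viability assay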
Description: SANGER: Inhibition of human JVM-2 cell growth in a cell viability assay.

HAL-01 = type: functional, cell-based, Homo sapiens; conditions: Homo sapiens, HAL-01;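 note: growth inhibition of human HAL-01 cells, read out with a cell viability assay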
Description: SANGER: Inhibition of human HAL-01 cell growth in a cell viability assay.

KE-37 = type: functional, cell-based, Homo sapiens; conditions: Homo sapiens, KE-37;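 note: growth inhibition of KE-37 cells, read out with a cell viability assay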
Description: SANGER: Inhibition of human KE-37 cell growth in a cell viability assay.

OS-RC-2 = type: functional, cell-based, Homo sapiens; conditions: Homo sapiens, OS-RC-2;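 note: growth inhibition of human OS-RC-2 cells, measured by a cell viability assay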
Description: SANGER: Inhibition of human OS-RC-2 cell growth in a cell viability assay.

LU-139 = type: functional, cell-based, Homo sapiens; conditions: Homo sapiens, LU-139
Description: SANGER: Inhibition of human LU-139 cell growth in a cell viability assay.

NCI-H82 = type: functional, cell-based, Homo sapiens; conditions: Homo sapiens, NCI-H82;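 note: growth inhibition of NCI-H82 cells, measured with a cell viability readout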
Description: SANGER: Inhibition of human NCI-H82 cell growth in a cell viability assay.

A4-Fuk = type: functional, cell-based, Homo sapiens; conditions: Homo sapiens, A4-Fuk;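 note: growth inhibition of A4-Fuk cells, read out by a cell viability assay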
Description: SANGER: Inhibition of human A4-Fuk cell growth in a cell viability assay.

JVM-3 = type: functional, cell-based, Homo sapiens; conditions: Homo sapiens, JVM-3;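 note: growth inhibition of human JVM-3 cells, read out with a cell viability assay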
Description: SANGER: Inhibition of human JVM-3 cell growth in a cell viability assay.

LS-1034 = type: functional, cell-based, Homo sapiens; conditions: Homo sapiens, LS-1034
Description: SANGER: Inhibition of human LS-1034 cell growth in a cell viability assay.

SH-4 = type: functional, cell-based; conditions: Homo sapiens;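 note: growth inhibition of SH-4 cells, read out with a cell viability assay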
Description: SANGER: Inhibition of human SH-4 cell growth in a cell viability assay.

NCI-H526 = type: functional, cell-based, Homo sapiens; conditions: Homo sapiens, NCI-H526;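 note: growth inhibition of the human NCI-H526 cell line, measured by a cell viability assay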
Description: SANGER: Inhibition of human NCI-H526 cell growth in a cell viability assay.

SW684 = type: functional, cell-based, Homo sapiens; conditions: Homo sapiens, SW684; read-out: IC50;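 note: growth inhibition of human SW684 cells, measured by a cell viability assay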
L-363 = type: functional, cell-based, Homo sapiens; conditions: Homo sapiens, L-363
LXF-289 cell line = type: functional, cell-based; conditions: Homo sapiens
Description: SANGER: Inhibition of human LXF-289 cell growth in a cell viability assay.

COLO-320-HSR = type: functional, cell-based, Homo sapiens; conditions: Homo sapiens, COLO-320-HSR;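 note: growth inhibition of COLO-320-HSR cells, determined with a cell viability assay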
Description: SANGER: Inhibition of human COLO-320-HSR cell growth in a cell viability assay.

ES3 = type: functional, cell-based, Homo sapiens; conditions: Homo sapiens, ES3;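 note: growth inhibition of ES3 cells, read out with a cell viability assay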
Description: SANGER: Inhibition of human ES3 cell growth in a cell viability assay.

KG-1 = type: functional, cell-based, Homo sapiens; conditions: Homo sapiens, KG-1;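 note: growth inhibition of KG-1 cells, read out by a cell viability assay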
Description: SANGER: Inhibition of human KG-1 cell growth in a cell viability assay.

KY821 = type: functional, cell-based, Homo sapiens; conditions: Homo sapiens, KY821;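 note: growth inhibition of human KY821 cells, read out by a cell viability assay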
Description: SANGER: Inhibition of human KY821 cell growth in a cell viability assay.

LS-123 = type: functional, cell-based, Homo sapiens; conditions: Homo sapiens, LS-123
TE-11 = type: functional, cell-based; conditions: Homo sapiens;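 note: growth inhibition of human TE-11 cells, read out by a cell viability assay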
Description: SANGER: Inhibition of human TE-11 cell growth in a cell viability assay.

Lu-65 = type: functional, cell-based, Homo sapiens; conditions: Homo sapiens, Lu-65;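 note: growth inhibition of Lu-65 cancer cells, read out by a cell viability assay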
Description: SANGER: Inhibition of human LU-65 cell growth in a cell viability assay.

NCI-H747 = type: functional, cell-based, Homo sapiens; conditions: Homo sapiens, NCI-H747;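 note: growth inhibition of human NCI-H747 cells, read out by a cell viability assay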
Description: SANGER: Inhibition of human NCI-H747 cell growth in a cell viability assay.

NCI-H69 = type: functional, cell-based, Homo sapiens; conditions: Homo sapiens, NCI-H69;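 note: growth inhibition of the cell line, read out with a cell viability assay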
Description: SANGER: Inhibition of human NCI-H69 cell growth in a cell viability assay.

RCC10RGB = type: functional, cell-based, Homo sapiens; conditions: Homo sapiens, RCC10RGB;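 note: growth inhibition of human RCC10RGB cells, read out by a cell viability assay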
Description: SANGER: Inhibition of human RCC10RGB cell growth in a cell viability assay.

EKVX = type: functional, cell-based, Homo sapiens; conditions: Homo sapiens, EKVX;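 note: growth inhibition of human EKVX cells, read out with a cell viability assay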
Description: SANGER: Inhibition of human EKVX cell growth in a cell viability assay.

QIMR-WIL = type: functional, cell-based, Homo sapiens; conditions: Homo sapiens, QIMR-WIL;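 note: growth inhibition of QIMR-WIL cells, read out with a cell viability assay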
Description: SANGER: Inhibition of human QIMR-WIL cell growth in a cell viability assay.

HDLM-2 = type: functional, cell-based, Homo sapiens; conditions: Homo sapiens, HDLM-2;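 note: cell viability assay measuring suppression of HDLM-2 proliferation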
Description: SANGER: Inhibition of human HDLM-2 cell growth in a cell viability assay.

SF-126 = type: functional, cell-based, Homo sapiens; conditions: Homo sapiens, SF-126;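 note: growth inhibition of human SF126 cells, read out with a cell viability assay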
NCI-H1650 = type: functional, cell-based, Homo sapiens; conditions: Homo sapiens, NCI-H1650;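 note: growth inhibition of human NCI-H1650 cells measured by a cell viability assay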
Description: SANGER: Inhibition of human NCI-H1650 cell growth in a cell viability assay.

Measured: pIC50

C=CC(=O)N1CCCC(Nc2nc(Nc3ccc(N(C)C(=O)CC)cc3)nc3[nH]cnc23)C1 (stereo not given)
< 4.99: RS4-11 | NKM-1 | LAN-6 | LAMA-84 | D-263MG | ES6 | LB1047-RCC | NCI-H23 | KURAMOCHI | C8166 | RKO | SNU-5 | EW-18 | AM-38 | CTV-1 | MS-1 | HH | TGBC24TKB | LU-134-A | JVM-2 | HAL-01 | KE-37 | OS-RC-2 | LU-139 | NCI-H82 | A4-Fuk | JVM-3 | LS-1034 | SH-4 | NCI-H526 | SW684 | L-363 | LXF-289 cell line | COLO-320-HSR | ES3 | KG-1 | KY821 | LS-123 | TE-11 | Lu-65 | NCI-H747 | NCI-H69 | RCC10RGB | EKVX | QIMR-WIL | HDLM-2 | SF-126 | NCI-H1650
5.14: LC-2-ad
5.13: A388

Cc1cc(N2CCOCC2)cc2[nH]c(-c3c(NC[C@@H](O)c4cccc(Cl)c4)cc[nH]c3=O)nc12
5.60: EKVX
5.54: CTV-1
6.93: LC-2-ad
6.05: SH-4
5.35: Lu-65
5.40: KURAMOCHI
5.61: SF-126
5.74: RS4-11
5.45: RCC10RGB
5.80: LU-134-A
5.95: HAL-01
6.17: NCI-H747
6.00: RKO
6.77: LAN-6
6.03: COLO-320-HSR
5.84: OS-RC-2
6.12: LS-1034
6.56: TGBC24TKB
7.24: A4-Fuk
6.82: TE-11
6.19: LB1047-RCC
6.37: ES6
5.81: LXF-289 cell line
6.48: L-363
< 5.29: NKM-1 | LAMA-84 | D-263MG | NCI-H23 | A388 | C8166 | SNU-5 | EW-18 | AM-38 | MS-1 | HH | JVM-2 | KE-37 | LU-139 | NCI-H82 | JVM-3 | NCI-H526 | SW684 | ES3 | KG-1 | KY821 | LS-123 | NCI-H69 | QIMR-WIL | HDLM-2 | NCI-H1650

NC(=O)Nc1cc(-c2cccc(F)c2)sc1C(=O)N[C@H]1CCCNC1 [AZD-7762]
6.61: NCI-H23
6.64: JVM-3
6.21: OS-RC-2
6.09: HDLM-2
6.18: LU-134-A
6.35: ES6
6.78: LAMA-84 | TGBC24TKB
5.80: EW-18
6.25: LC-2-ad
6.69: RS4-11
6.00: COLO-320-HSR
6.28: RKO
7.50: KE-37
7.22: LB1047-RCC
6.99: ES3
6.07: KG-1
> 8.11: NKM-1
6.79: QIMR-WIL
5.97: LAN-6
7.13: A4-Fuk | L-363
6.04: D-263MG
5.74: LS-123
5.72: C8166
7.41: CTV-1
5.81: NCI-H526
6.17: LXF-289 cell line
5.98: NCI-H1650
< 5.70: KURAMOCHI | A388 | SNU-5 | AM-38 | MS-1 | JVM-2 | LU-139 | NCI-H82 | LS-1034 | SH-4 | SW684 | Lu-65 | NCI-H747 | NCI-H69 | RCC10RGB | EKVX
6.67: KY821
6.68: HAL-01
6.15: HH
6.34: TE-11
6.24: SF-126

C[C@@H](Oc1cc(-c2cnn(C3CCNCC3)c2)cnc1N)c1c(Cl)ccc(F)c1Cl [CRIZOTINIB]
6.22: CTV-1
6.98: SNU-5
< 5.70: RS4-11 | NKM-1 | LAN-6 | D-263MG | ES6 | LB1047-RCC | NCI-H23 | KURAMOCHI | A388 | C8166 | RKO | EW-18 | AM-38 | LC-2-ad | MS-1 | HH | TGBC24TKB | LU-134-A | JVM-2 | HAL-01 | KE-37 | OS-RC-2 | LU-139 | NCI-H82 | A4-Fuk | JVM-3 | LS-1034 | SH-4 | NCI-H526 | SW684 | L-363 | LXF-289 cell line | COLO-320-HSR | ES3 | KG-1 | KY821 | LS-123 | TE-11 | Lu-65 | NCI-H747 | NCI-H69 | RCC10RGB | EKVX | QIMR-WIL | HDLM-2 | SF-126 | NCI-H1650
5.86: LAMA-84

Cc1ccc(-n2nc(C(C)(C)C)cc2NC(=O)Nc2ccc(OCCN3CCOCC3)c3ccccc23)cc1 [DORAMAPIMOD]
< 5.00: RS4-11 | NKM-1 | LAN-6 | LAMA-84 | D-263MG | ES6 | LB1047-RCC | NCI-H23 | KURAMOCHI | A388 | C8166 | RKO | SNU-5 | EW-18 | AM-38 | CTV-1 | LC-2-ad | MS-1 | HH | TGBC24TKB | LU-134-A | JVM-2 | HAL-01 | KE-37 | OS-RC-2 | LU-139 | NCI-H82 | A4-Fuk | JVM-3 | LS-1034 | SH-4 | NCI-H526 | SW684 | L-363 | LXF-289 cell line | COLO-320-HSR | ES3 | KG-1 | KY821 | LS-123 | TE-11 | Lu-65 | NCI-H747 | NCI-H69 | RCC10RGB | EKVX | QIMR-WIL | HDLM-2 | SF-126 | NCI-H1650
